Results published in US10273226B2, “Pyrazolyl-heteroarylamides as pesticides” (Bayer Animal Health GmbH, priority 2014, dated 2019).

How the values were obtained:
Format in all cases: in vivo
Boophilus microplus = Boophilus microplus injection test; settings: application rate 20 μg/animal; injection into abdomen; assessed after 7 days
Experimental: Boophilus microplus—Injection Test
(§1) Solvent: dimethyl sulphoxide
To produce an appropriate active ingredient formulation, 10 mg of active ingredient are mixed with 0.5 ml of solvent and the concentrate is diluted with solvent to the desired concentration.
1 μl of the active ingredient solution is injected into the abdomen of 5 engorged adult female cattle ticks (Boophilus microplus). The animals are transferred into dishes and kept in a climate-controlled room.
Efficacy is assessed after 7 days by laying of fertile eggs. Eggs which are not visibly fertile are stored in a climate-controlled cabinet until the larvae hatch after about 42 days. An efficacy of 100% means that none of the ticks has laid any fertile eggs; 0% means that all the eggs are fertile.

Ctenocephalides felis [1] = assay: Ctenocephalides felis oral test; settings: application rate 100 ppm in citrated cattle blood; after 2 days
Experimental: Ctenocephalides felis—Oral Test
as §1
For the purpose of producing an appropriate active ingredient formulation, 10 mg of active ingredient are mixed with 0.5 ml of dimethyl sulphoxide. Dilution with citrated cattle blood gives the desired concentration.
About 20 unfed adult cat fleas (Ctenocephalides felis) are placed into a chamber which is closed at the top and bottom with gauze. A metal cylinder whose bottom end is closed with parafilm is placed onto the chamber. The cylinder contains the blood/active ingredient preparation, which can be imbibed by the fleas through the parafilm membrane.
After 2 days, the kill in % is determined. 100% means that all of the fleas have been killed; 0% means that none of the fleas have been killed.

Lucilia cuprina = Lucilia cuprina test; settings: application rate 100 ppm; L1 larvae; after 2 days
Experimental: as §1
To produce an appropriate active ingredient formulation, 10 mg of active ingredient are mixed with 0.5 ml of dimethyl sulphoxide, and the concentrate is diluted with water to the desired concentration.
About 20 L1 larvae of the Australian sheep blowfly (Lucilia cuprina) are transferred into a test vessel containing minced horsemeat and the active ingredient preparation of the desired concentration.
After 2 days, the kill in % is determined. 100% means that all the larvae have been killed and 0% means that none of the larvae have been killed.

Spodoptera frugiperda = Spodoptera frugiperda spray test; settings: caterpillars, after 7 days
Experimental: Spodoptera frugiperda—Spray Test
(§2) To produce an appropriate active ingredient formulation, 1 part by weight of active ingredient is dissolved using the specified parts by weight of solvent and made up with water containing an emulsifier concentration of 1000 ppm until the desired concentration is attained. To produce further test concentrations, the preparation is diluted with emulsifier-containing water.
Leaf discs of maize (Zea mays) are sprayed with an active ingredient formulation of the desired concentration and, after drying, populated with caterpillars of the armyworm (Spodoptera frugiperda).
After 7 days, efficacy in % is determined. 100% means that all the caterpillars have been killed; 0% means that no caterpillars have been killed.

Tetranychus urticae = Tetranychus urticae spray test, OP-resistant; settings: application rate 100 g/ha; after 6 days
Experimental: Tetranychus urticae—Spray Test, OP-Resistant
as §2
Discs of bean leaves (Phaseolus vulgaris) infested by all stages of the greenhouse red spider mite (Tetranychus urticae) are sprayed with an active ingredient formulation of the desired concentration.
After 6 days, efficacy in % is determined. 100% means that all the spider mites have been killed; 0% means that none of the spider mites have been killed.

Rhipicephalus sanguineus = Rhipicephalus sanguineus in vitro contact test with adult brown dog ticks; settings: after 48 h, ticks dead or moribund
Experimental: Rhipicephalus sanguineus—In Vitro Contact Tests with Adult Brown Dog Ticks
(§3) For the coating of the test tubes, 9 mg of active ingredient are first dissolved in 1 ml of acetone p.a. and then diluted to the desired concentration with acetone p.a. 250 μl of the solution are distributed homogeneously on the inner walls and base of a 25 ml test tube by turning and rocking on an orbital shaker (rocking rotation at 30 rpm for 2 h). With 900 ppm active ingredient solution and internal surface 44.7 cm^2, given homogeneous distribution, an area-based dose of 5 μg/cm^2 is achieved.
After the solvent has evaporated off, the tubes are populated with 5-10 adult dog ticks (Rhipicephalus sanguineus), sealed with a perforated plastic lid and incubated in a horizontal position in the dark at room temperature and ambient humidity. After 48 h, efficacy is determined. To this end, the ticks are knocked to the floor of the tube and incubated on a hotplate at 45-50° C. for not more than 5 min. Ticks which remain motionless on the floor or move in such an uncoordinated manner that they are unable to deliberately avoid the heat by climbing upwards are considered to be dead or moribund.
An efficacy of 100% means that all the ticks were dead or moribund. 0% efficacy means that none of the ticks had been harmed.

Phaedon cochleariae = Phaedon cochleariae spray test; settings: larvae, after 7 days
Experimental: Phaedon cochleariae—Spray Test
as §2
Discs of Chinese cabbage leaves (Brassica pekinensis) are sprayed with an active ingredient formulation of the desired concentration and, after drying, populated with larvae of the mustard beetle (Phaedon cochleariae).
After 7 days, efficacy in % is determined. 100% means that all the beetle larvae have been killed; 0% means that no beetle larvae have been killed.

Ctenocephalides felis [2] = assay: Ctenocephalides felis in vitro contact test with adult cat fleas; settings: application rate 5 μg/cm^2 (500 g/ha); after 48 h; fleas dead or moribund
Experimental: Ctenocephalides felis—In Vitro Contact Tests with Adult Cat Fleas
as §3
After the solvent has evaporated off, the tubes are populated with 5-10 adult cat fleas (Ctenocephalides felis), sealed with a perforated plastic lid and incubated in a horizontal position at room temperature and ambient humidity. After 48 h, efficacy is determined. To this end, the test tubes are stood upright and the fleas are knocked to the base of the tube. Fleas which remain motionless at the base or move in an uncoordinated manner are considered to be dead or moribund.
100% efficacy means that all the fleas were dead or moribund. 0% efficacy means that no fleas were harmed.

[3] = application rate 5 μg/cm^2 (500 g/ha)

Compound	efficacy (laying of fertile eggs) (Boophilus microplus)	efficacy (kill in %) (Ctenocephalides felis [1])	efficacy (kill in %) (Lucilia cuprina)	efficacy (Spodoptera frugiperda; application rate 100 g/ha)	efficacy (Tetranychus urticae)	efficacy (Rhipicephalus sanguineus; [3])	efficacy (Phaedon cochleariae; application rate 100 g/ha)	efficacy (Phaedon cochleariae; application rate 500 g/ha)	efficacy (Spodoptera frugiperda; application rate 500 g/ha)	efficacy (Ctenocephalides felis [2])	efficacy (Rhipicephalus sanguineus; application rate 1 μg/cm^2 (100 g/ha))
CCC(C)C(=O)Nc1cc(-c2cnn(-c3c(C(F)(F)F)c(C(F)(F)C(F)(F)F)nn3C)c2)ccc1F (racemic) [Example 1-052]	100%	90%	100%	100%	100%	–	–	–	–	–	–
Cn1nc(C(F)(F)C(F)(F)F)c(C(F)(F)F)c1-n1cc(-c2cccc(NC(=O)c3cc(Cl)nc(Cl)c3)c2)cn1 [Example 1-011]	100%	100%	100%	–	90%	80%	100%	–	–	–	–
Cn1nc(C(F)(F)C(F)(F)F)c(C(F)(F)F)c1-n1cc(-c2cccc(NC(=O)c3c(F)cccc3F)c2)cn1 [Example 1-015]	100%	100%	100%	100%	100%	80%	100%	–	–	–	–
Cn1nc(C(F)(F)C(F)(F)F)c(C(F)(F)F)c1-n1cc(-c2cccc(NC(=O)c3sccc3Cl)c2)cn1 [Example 1-018]	100%	–	–	–	90%	–	–	100%	100%	–	–
Cn1nc(C(F)(F)C(F)(F)F)c(C(F)(F)F)c1-n1cc(-c2ccc(Cl)c(NC(=O)c3ccccc3)c2)cn1 [Example 1-023]	100%	100%	100%	100%	100%	100%	100%	–	–	100%	–
Cn1nc(C(F)(F)C(F)(F)F)c(C(F)(F)F)c1-n1cc(-c2cccc(NC(=O)C3(C#N)CC3)c2)cn1 [Example 1-029]	100%	100%	100%	–	100%	100%	–	83%	100%	–	–
Cn1nc(C(F)(F)C(F)(F)F)c(C(F)(F)F)c1-n1cc(-c2ccc(F)c(NC(=O)c3ccc(F)cc3)c2F)cn1 [Example 1-039]	–	–	–	100%	100%	–	100%	–	–	80%	–
Cc1cc(C(=O)Nc2cc(-c3cnn(-c4c(C(F)(F)F)c(C(F)(F)C(F)(F)F)nn4C)c3)ccc2F)cc(Cl)n1 [Example 1-043]	100%	100%	100%	100%	100%	–	100%	–	–	–	80%
Cn1nc(C(F)(F)C(F)(F)F)c(C(F)(F)F)c1-n1cc(-c2ccc(F)c(NC(=O)C(C)(C)CF)c2)cn1 [Example 1-046]	100%	–	100%	–	100%	–	–	–	–	–	–
